Results: ChEMBL document CHEMBL1201862, “PubChem BioAssay data set” (2004)
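Following 48 hours of exposure in 96-well plates, responses at five concentrations were used to interpolate endpoints linearly. Here, GI50 denotes the concentration required for 50% inhibition of growth.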 Active and inactive are the calls of the source. Rule as the data show it: active = GI50 up to about 1.1 µM and inactive = higher.

Assays:
Assay in all cases: NCI tumour cell line growth inhibition, 48 h
786-0 = tested on: 786-0
A498 = tested on: A498
A549 = tested on: A549
ACHN = tested on: ACHN
CAKI-1 = tested on: CAKI-1
CCRF-CEM = tested on: CCRF-CEM
COLO 205 = tested on: COLO 205
DLD-1 = tested on: DLD-1
DMS-114 = tested on: DMS-114
DMS-273 = tested on: DMS-273
EKVX = tested on: EKVX
HCT-116 = tested on: HCT-116
HCT-15 = tested on: HCT-15
HL-60 = tested on: HL-60
HOP-18 = tested on: HOP-18
HOP-62 = tested on: HOP-62
HOP-92 = tested on: HOP-92
HT-29 = tested on: HT-29
IGROV-1 = tested on: IGROV-1
K562 = tested on: K562
KM-20L2 = tested on: KM-20L2
KM12 = tested on: KM12
LOX IMVI = tested on: LOX IMVI
LXFL 529 = tested on: LXFL 529
M14 = tested on: M14
M19-MEL = tested on: M19-MEL
MOLT-4 = tested on: MOLT-4
Malme-3M = tested on: Malme-3M
NCI-H226 = tested on: NCI-H226
NCI-H23 = tested on: NCI-H23
NCI-H460 = tested on: NCI-H460
NCI-H522 = tested on: NCI-H522
OVCAR-3 = tested on: OVCAR-3
OVCAR-4 = tested on: OVCAR-4
OVCAR-5 = tested on: OVCAR-5
OVCAR-8 = tested on: OVCAR-8
RPMI-8226 = tested on: RPMI-8226
RXF 393 = tested on: RXF 393
RXF 631 = tested on: RXF 631
SF-268 = tested on: SF-268
SF-295 = tested on: SF-295
SK-MEL-28 = tested on: SK-MEL-28
SK-MEL-2 = tested on: SK-MEL-2
SK-MEL-5 = tested on: SK-MEL-5
SK-OV-3 = tested on: SK-OV-3
SN12C = tested on: SN12C
SNB-19 = tested on: SNB-19
SNB-75 = tested on: SNB-75
SNB-78 = tested on: SNB-78
SR = tested on: SR
SW-620 = tested on: SW-620
TK-10 = tested on: TK-10
U-251 = tested on: U-251
UACC-257 = tested on: UACC-257
UACC-62 = tested on: UACC-62
UO-31 = tested on: UO-31
XF498 = tested on: XF498
HCC 2998 = tested on: HCC 2998
SF-539 = tested on: SF-539

`[O-][n+]1c2cc(CBr)c(CBr)cc2[n+]([O-])c2c(O)cccc21` was tested, and the GI50 (786-0) was 1.58 µM (inactive), the GI50 (A498) was 12.5 µM (inactive) and the GI50 (A549) was 3.1 µM (inactive). For the same compound, the GI50 (ACHN) was 1.81 µM (inactive), the GI50 (CAKI-1) was 2.87 µM (inactive) and the GI50 (CCRF-CEM) was 0.265 µM (active). For the same compound, the GI50 (COLO 205) was 1.77 µM (inactive), the GI50 (DLD-1) was 1.41 µM (inactive) and the GI50 (DMS-114) was 1.69 µM (inactive). The GI50 (DMS-273) was 1.68 µM (inactive), the GI50 (EKVX) was 6.05 µM (inactive) and the GI50 (HCT-116) was 1.53 µM (inactive). The GI50 (HCT-15) was 1.56 µM, the GI50 (HL-60) was 0.388 µM (active) and the GI50 (HOP-18) was 2.39 µM (inactive). The GI50 (HOP-62) was 20.1 µM (inactive), the GI50 (HOP-92) was 1.05 µM (active) and the GI50 (HT-29) was 2.01 µM (inactive). The GI50 (IGROV-1) was 4.02 µM (inactive), the GI50 (K562) was 1.22 µM (inactive) and the GI50 (KM-20L2) was 3.07 µM (inactive). The GI50 (KM12) was 1.9 µM (inactive), the GI50 (LOX IMVI) was 1.35 µM (inactive) and the GI50 (LXFL 529) was 1.56 µM (inactive). The GI50 (M14) was 1.75 µM (inactive), the GI50 (M19-MEL) was 1.73 µM (inactive) and the GI50 (MOLT-4) was 0.344 µM (active). The GI50 (Malme-3M) was 1.91 µM (inactive), the GI50 (NCI-H226) was 6.61 µM (inactive) and the GI50 (NCI-H23) was 2.72 µM (inactive). The GI50 (NCI-H460) was 1.91 µM (inactive), the GI50 (NCI-H522) was 0.538 µM (active) and the GI50 (OVCAR-3) was 2.22 µM (inactive). For the same compound, the GI50 (OVCAR-4) was 1.8 µM (inactive), the GI50 (OVCAR-5) was 1.95 µM (inactive) and the GI50 (OVCAR-8) was 1.82 µM (inactive). The GI50 (RPMI-8226) was 1.53 µM (inactive), the GI50 (RXF 393) was 1.76 µM (inactive) and the GI50 (RXF 631) was 3.15 µM (inactive). For the same compound, the GI50 (SF-268) was 2.84 µM (inactive), the GI50 (SF-295) was 1.84 µM (inactive) and the GI50 (SK-MEL-28) was 1.76 µM (inactive). The GI50 (SK-MEL-2) was 2.22 µM (inactive), the GI50 (SK-MEL-5) was 2.1 µM (inactive) and the GI50 (SK-OV-3) was 4.86 µM (inactive). For the same compound, the GI50 (SN12C) was 1.73 µM (inactive), the GI50 (SNB-19) was 5.26 µM (inactive) and the GI50 (SNB-75) was 2.11 µM (inactive). For the same compound, the GI50 (SNB-78) was 1.94 µM (inactive), the GI50 (SR) was 0.248 µM (active) and the GI50 (SW-620) was 1.56 µM (inactive). For the same compound, the GI50 (TK-10) was 6.07 µM (inactive), the GI50 (U-251) was 2.9 µM (inactive) and the GI50 (UACC-257) was 2.38 µM (inactive). The GI50 (UACC-62) was 1.79 µM (inactive), the GI50 (UO-31) was 1.93 µM (inactive) and the GI50 (XF498) was 2.35 µM (inactive).
`CC1=CCN(c2ccccn2)OC1c1ccccc1` (configuration not stated) was tested, and the GI50 (786-0) was > 100 µM (inactive), the GI50 (A549) was > 100 µM (inactive) and the GI50 (ACHN) was > 100 µM (inactive). The GI50 (CAKI-1) was > 100 µM (inactive), the GI50 (CCRF-CEM) was > 100 µM (inactive) and the GI50 (COLO 205) was > 100 µM (inactive). The GI50 (DLD-1) was > 100 µM (inactive), the GI50 (DMS-114) was > 100 µM (inactive) and the GI50 (DMS-273) was > 100 µM (inactive). The GI50 (EKVX) was > 100 µM (inactive), the GI50 (HCC 2998) was > 100 µM (inactive) and the GI50 (HCT-116) was > 100 µM (inactive). For the same compound, the GI50 (HCT-15) was > 100 µM, the GI50 (HL-60) was 66.8 µM (inactive) and the GI50 (HOP-18) was > 100 µM (inactive). The GI50 (HOP-62) was > 100 µM (inactive), the GI50 (HT-29) was > 100 µM (inactive) and the GI50 (IGROV-1) was > 100 µM (inactive). For the same compound, the GI50 (K562) was > 100 µM (inactive), the GI50 (KM-20L2) was > 100 µM (inactive) and the GI50 (KM12) was > 100 µM (inactive). The GI50 (LOX IMVI) was > 100 µM (inactive), the GI50 (LXFL 529) was > 100 µM (inactive) and the GI50 (M14) was > 100 µM (inactive). The GI50 (M19-MEL) was > 100 µM (inactive), the GI50 (MOLT-4) was > 100 µM (inactive) and the GI50 (Malme-3M) was > 100 µM (inactive). For the same compound, the GI50 (NCI-H226) was > 100 µM (inactive), the GI50 (NCI-H23) was > 100 µM (inactive) and the GI50 (NCI-H460) was > 100 µM (inactive). The GI50 (NCI-H522) was 54.6 µM (inactive), the GI50 (OVCAR-3) was > 100 µM (inactive) and the GI50 (OVCAR-4) was > 100 µM (inactive). For the same compound, the GI50 (OVCAR-5) was 59.8 µM (inactive), the GI50 (OVCAR-8) was > 100 µM (inactive) and the GI50 (RPMI-8226) was 66.8 µM (inactive). For the same compound, the GI50 (RXF 393) was 62.8 µM (inactive), the GI50 (RXF 631) was > 100 µM (inactive) and the GI50 (SF-268) was > 100 µM (inactive). The GI50 (SF-295) was > 100 µM (inactive), the GI50 (SF-539) was > 100 µM (inactive) and the GI50 (SK-MEL-28) was > 100 µM (inactive). For the same compound, the GI50 (SK-MEL-2) was > 100 µM (inactive), the GI50 (SK-OV-3) was > 100 µM (inactive) and the GI50 (SN12C) was > 100 µM (inactive). The GI50 (SNB-19) was > 100 µM (inactive), the GI50 (SNB-75) was > 100 µM (inactive) and the GI50 (SNB-78) was > 100 µM (inactive). The GI50 (SR) was 59.3 µM (inactive), the GI50 (SW-620) was > 100 µM (inactive) and the GI50 (U-251) was > 100 µM (inactive). The GI50 (UACC-257) was > 100 µM (inactive), the GI50 (UACC-62) was > 100 µM (inactive) and the GI50 (UO-31) was 59.8 µM (inactive). The GI50 (XF498) was > 100 µM (inactive).
